According to ChEMBL document CHEMBL1201862, “PubChem BioAssay data set” (2004):
Active and inactive are the calls of the source.

Tests used:
[1] = growth suppression of PTEN-null colon cells, dose response, cell-based, HCT116 PTEN knockout (AID 1047); type: functional;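 further: HCT116 colon tumor cells with PTEN knocked out; cells exposed to compound for 60 hours before readout; potency for loss of cell viability measured by luminescence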
[2] = cytotoxicity in KRAS-transformed pancreatic duct cells, primary screen, cell-based, fluorescence, HTS (AID 431); type: functional; conditions: Homo sapiens;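 further: cell line used: HPDE-C7K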
[3] = growth suppression of beta-catenin-knockout colon cells, dose response, cell-based, HCT116, human colon tumor (AID 1045); type: functional;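 further: HCT116 colon tumor cells with beta catenin knocked out; cells exposed to compound for 60 hours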
[4] = cytotoxicity in MIN6 insulinoma cells, dose response, cytotoxicity control, cell-based, mouse insulinoma (AID 2122); type: functional;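 further: confirmatory high-throughput counterscreen run to flag cytotoxic compounds; mouse MIN-6 beta cells carrying an insulin promoter eGFP reporter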
[5] = cytotoxicity in HPDE-C7 cells, cell-based, fluorescence, HTS (AID 430); type: functional; conditions: Homo sapiens
Nonstructural protein 1 = Nonstructural protein 1 (Influenza A virus, UniProt Q194T2); type: functional, Influenza A virus (A/California/07/2009(H1N1))
[6] = insulin promoter down-regulators in MIN6 cells, imaging, high-content screening, mouse beta cells (AID 1628); type: functional
INS1 = test: beta cell apoptosis inhibitors, cytokine rescue, dose response, luminescence, retest (AID 449756); type: functional, cell-based; conditions: Rattus norvegicus;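 further: cell death triggered by IL-1 beta plus TNF-alpha plus IFN-gamma mixture; protective hits raise ATP signal compared with cytokine alone wells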
[7] = biological target: NAD-dependent protein deacylase sirtuin-5, mitochondrial (Homo sapiens, UniProt Q9NXA8); test: SIRT5 desuccinylase inhibitors, dose response, biochemical, fluorescence imaging, cherry-pick, set 5 (AID 720591);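 further: desuccinylation of succinyl peptide AMC substrate read as fluorescence after trypsin release; potency of inhibitors that lower fluorescence and may act on trypsin instead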
[8] = biological target: Heat shock protein HSP 90-alpha (Homo sapiens, UniProt P07900); test: Luminescence-based dose response biochemical high throughput screening assay for inhibitors of the Heat Shock Protein 90 (HSP90). [Related pubchem assays: 1831 (Summary AID.), 1846 (Confirmation screen.), 1789 (Primary screen.)]
[9] = biological target: Voltage-gated inwardly rectifying potassium channel KCNH2 (Homo sapiens, UniProt Q12809); test: hERG protection from proarrhythmic block, potency, dose response, cell-based, thallium flux (AID 2121); type: ADME
Bcl-2-like protein 10 = biological target: T1, Bcl-2-like protein 10 (Homo sapiens, UniProt Q9HD36); test: displacers of TR3 peptide from Bcl-B, primary screen, selectivity assay for Bfl-1 inhibitor project, biochemical, fluorescence polarization, FITC-TR3 peptide (AID 748);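 further: fluorescence polarization from a fluorescein-labelled TR3 peptide binding purified Bcl-B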
T1 sequence (Q9HD36 whole entry): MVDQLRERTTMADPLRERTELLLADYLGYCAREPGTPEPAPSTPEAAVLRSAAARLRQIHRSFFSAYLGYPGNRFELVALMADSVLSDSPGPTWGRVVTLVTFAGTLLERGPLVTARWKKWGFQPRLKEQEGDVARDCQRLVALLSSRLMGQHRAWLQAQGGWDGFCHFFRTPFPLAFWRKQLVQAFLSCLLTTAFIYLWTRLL

Estrogen receptor beta = Estrogen receptor beta (Homo sapiens, UniProt Q92731); test: ERβ–SRC-3 coactivator interaction inhibitors, confirmation, orthogonal assay, biochemical, ELISA, streptavidin-HRP readout (AID 1060)
[10] = Luminescence-based cell-based high throughput dose response assay to identify activators of the DAF-12 from the parasite S. stercoralis (ssDAF-12).; type: functional
[11] = biological target: T2, Oxysterols receptor LXR-beta (Homo sapiens, UniProt P55055); test: LXR agonists, Gal4 luciferase reporter, dose response, counter-screen for ssDAF-12 agonist project, cell-based, luminescence, HEK293, S. stercoralis campaign (AID 720737); type: functional; conditions: read-out: IC50 (the source's name)
T2 sequence (P55055 whole entry): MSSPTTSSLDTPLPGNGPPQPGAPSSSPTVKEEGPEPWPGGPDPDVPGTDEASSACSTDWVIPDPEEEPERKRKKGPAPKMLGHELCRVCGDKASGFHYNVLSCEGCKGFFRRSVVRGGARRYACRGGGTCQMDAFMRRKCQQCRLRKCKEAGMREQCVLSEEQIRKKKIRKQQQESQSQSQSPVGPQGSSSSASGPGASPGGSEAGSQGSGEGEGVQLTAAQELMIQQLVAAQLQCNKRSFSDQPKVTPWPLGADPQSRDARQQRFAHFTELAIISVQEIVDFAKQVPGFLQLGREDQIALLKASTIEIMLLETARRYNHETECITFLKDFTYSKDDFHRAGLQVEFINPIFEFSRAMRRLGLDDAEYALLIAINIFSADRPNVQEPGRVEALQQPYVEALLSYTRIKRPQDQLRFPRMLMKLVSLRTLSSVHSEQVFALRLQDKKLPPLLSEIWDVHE

[12] = MC4R antagonists, dose response, counter-screen for LGR2 antagonist project, cell-based, plate reader, cherry pick (AID 743444); type: functional;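 further: transfected HEK 293 cells stimulated with alpha-MSH peptide; potency of inhibitors of the alpha-MSH evoked signal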
[13] = inhibitors of clade B AD8 Env fusion, dose response, cell-based, cherry-pick (AID 652062); type: functional;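 further: luciferase signal from cell-cell fusion driven by HIV-1 clade B AD8 Env; potency is for inhibitors of fusion seen as a drop in luminescence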
cells = type: functional, cell-based
[14] = cytotoxicity in HEK-293T NF-kB-Luc cells, dose response, cytotoxicity control for B/T-cell NF-kB inhibitor project, cell-based, uHTS hits (AID 489019); type: functional;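 further: IC50 reflects cytotoxicity as loss of cell viability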
[15] = off-target signal loss in HeLa-CEM21 co-culture – HeLa F-luc CTL cells, cherry-picked, counter-screen for HIV-1 Env fusion inhibitor project, dose response (AID 652040); type: functional, cell-based;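 further: potency for signal decrease marking cytotoxic or nonspecific inhibition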
[16] = inhibitors of HIV Env-driven cell fusion, dose response, cherry-pick (AID 652057); type: functional, cell-based
[17] = ZM109 Env clade C HIV-1 fusion inhibitors, dose response, HeLa effector, CEM target cells, luciferase, cherry-pick (AID 652058); type: functional, cell-based
[18] = luciferase reporter signal reduction – luminescence, H4-C neuroglioblastoma cells, dose response (AID 2458); type: functional, cell-based;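 further: H4 neuroglioblastoma cells stably carrying a luciferase reporter gene fusion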
[19] = LGR2 antagonists, dose response, cell-based, HEK293, CRE-luciferase reporter, cherry pick, set 2 (AID 743343); type: functional;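 further: transfected cells were stimulated with diluted bursicon conditioned medium after compound addition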
[20] = inhibitors of SNCA 5'UTR-driven translation, confirmation, luminescence, H4 neuroglioblastoma cells, dose confirmation (AID 2454); type: functional, cell-based;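 further: H4 neuroglioblastoma cells carrying an alpha-synuclein 5'UTR luciferase reporter; potency for inhibition of the luciferase signal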
[21] = inhibitors of SNCA 5'UTR-driven reporter translation, confirmation, H4 neuroglioma cells, luminescence (AID 1988); type: functional, cell-based
Jurkat = test: antigen receptor-induced NF-kB inhibitors, dose response, Jurkat, luciferase reporter, luminescence, B- and T-cell (AID 489004); type: functional, cell-based; conditions: Homo sapiens;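 further: NF-kB luciferase reporter Jurkat cells stimulated with PMA plus ionomycin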
[22] = biological target: T3, Tyrosine-protein phosphatase non-receptor type 7 (Homo sapiens, UniProt P35236); test: inhibitors of human HePTP phosphatase, […], biochemical, absorbance, leukemia target (AID 521); type: functional
T3 sequence (P35236 whole entry): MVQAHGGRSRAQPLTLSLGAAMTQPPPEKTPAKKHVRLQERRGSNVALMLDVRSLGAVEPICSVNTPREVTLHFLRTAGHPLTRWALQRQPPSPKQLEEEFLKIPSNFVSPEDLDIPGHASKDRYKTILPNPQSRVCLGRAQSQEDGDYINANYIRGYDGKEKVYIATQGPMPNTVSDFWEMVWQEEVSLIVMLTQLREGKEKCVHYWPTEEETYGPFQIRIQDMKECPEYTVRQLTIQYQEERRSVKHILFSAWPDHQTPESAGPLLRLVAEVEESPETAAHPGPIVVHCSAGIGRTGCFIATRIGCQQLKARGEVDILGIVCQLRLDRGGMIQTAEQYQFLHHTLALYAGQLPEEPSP

Estrogen receptor = Estrogen receptor (Homo sapiens, UniProt P03372);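 further: potency for inhibiting coactivator peptide recruitment to the receptor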
Chain of Estrogen receptor (P03372 whole entry): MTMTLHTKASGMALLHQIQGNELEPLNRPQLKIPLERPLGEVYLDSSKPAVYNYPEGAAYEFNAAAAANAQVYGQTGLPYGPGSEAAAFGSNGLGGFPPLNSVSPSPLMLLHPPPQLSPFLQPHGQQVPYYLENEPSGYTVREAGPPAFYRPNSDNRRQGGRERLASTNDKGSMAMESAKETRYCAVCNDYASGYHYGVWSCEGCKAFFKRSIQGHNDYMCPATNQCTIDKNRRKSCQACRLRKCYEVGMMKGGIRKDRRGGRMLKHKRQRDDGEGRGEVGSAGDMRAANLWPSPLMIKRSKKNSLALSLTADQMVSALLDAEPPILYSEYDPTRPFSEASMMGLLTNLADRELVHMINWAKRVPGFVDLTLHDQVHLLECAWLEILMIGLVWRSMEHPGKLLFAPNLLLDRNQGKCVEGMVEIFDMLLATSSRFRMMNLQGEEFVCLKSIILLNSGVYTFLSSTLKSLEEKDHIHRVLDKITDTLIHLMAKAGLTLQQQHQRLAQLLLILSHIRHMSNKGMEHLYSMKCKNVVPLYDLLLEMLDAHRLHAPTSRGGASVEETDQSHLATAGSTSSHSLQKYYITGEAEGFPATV

Chain of Nonstructural protein 1 (Q194T2 whole entry): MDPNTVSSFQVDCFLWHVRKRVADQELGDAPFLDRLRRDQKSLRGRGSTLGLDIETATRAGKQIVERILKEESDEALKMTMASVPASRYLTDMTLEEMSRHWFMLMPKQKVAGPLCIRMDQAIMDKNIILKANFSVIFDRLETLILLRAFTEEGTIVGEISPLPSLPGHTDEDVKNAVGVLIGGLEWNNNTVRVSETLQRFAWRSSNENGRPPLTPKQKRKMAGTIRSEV
Chain of Voltage-gated inwardly rectifying potassium channel KCNH2 (Q12809 whole entry): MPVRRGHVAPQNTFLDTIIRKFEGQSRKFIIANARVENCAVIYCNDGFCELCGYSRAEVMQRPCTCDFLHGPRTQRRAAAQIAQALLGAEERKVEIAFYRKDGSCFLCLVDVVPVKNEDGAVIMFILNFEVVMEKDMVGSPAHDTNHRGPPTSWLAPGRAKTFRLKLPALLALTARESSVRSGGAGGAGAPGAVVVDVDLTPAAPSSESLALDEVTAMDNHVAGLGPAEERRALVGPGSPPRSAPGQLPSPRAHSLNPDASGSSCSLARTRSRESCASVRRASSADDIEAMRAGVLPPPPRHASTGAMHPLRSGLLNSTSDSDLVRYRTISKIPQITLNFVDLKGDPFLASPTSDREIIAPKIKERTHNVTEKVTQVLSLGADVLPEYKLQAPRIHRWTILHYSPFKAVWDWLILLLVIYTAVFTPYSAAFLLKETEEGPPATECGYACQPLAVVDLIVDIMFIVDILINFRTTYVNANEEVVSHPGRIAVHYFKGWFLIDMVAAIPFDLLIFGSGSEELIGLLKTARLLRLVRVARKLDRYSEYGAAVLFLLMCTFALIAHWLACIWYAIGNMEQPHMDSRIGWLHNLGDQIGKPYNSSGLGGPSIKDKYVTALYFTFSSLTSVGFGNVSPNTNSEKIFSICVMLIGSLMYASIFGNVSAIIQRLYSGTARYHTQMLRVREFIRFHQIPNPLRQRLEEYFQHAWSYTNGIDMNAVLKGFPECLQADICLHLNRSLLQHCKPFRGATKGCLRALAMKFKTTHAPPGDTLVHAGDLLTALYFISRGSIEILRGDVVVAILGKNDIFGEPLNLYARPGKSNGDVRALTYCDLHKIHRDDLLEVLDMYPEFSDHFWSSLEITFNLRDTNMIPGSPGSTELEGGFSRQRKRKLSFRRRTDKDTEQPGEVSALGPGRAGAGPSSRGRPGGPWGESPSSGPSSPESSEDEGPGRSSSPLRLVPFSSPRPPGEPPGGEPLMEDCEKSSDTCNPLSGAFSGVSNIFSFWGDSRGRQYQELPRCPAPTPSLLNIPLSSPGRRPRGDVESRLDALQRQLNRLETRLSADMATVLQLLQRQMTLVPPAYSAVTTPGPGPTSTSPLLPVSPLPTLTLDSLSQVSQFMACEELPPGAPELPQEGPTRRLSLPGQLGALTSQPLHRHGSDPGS
Chain of NAD-dependent protein deacylase sirtuin-5, mitochondrial (Q9NXA8 whole entry): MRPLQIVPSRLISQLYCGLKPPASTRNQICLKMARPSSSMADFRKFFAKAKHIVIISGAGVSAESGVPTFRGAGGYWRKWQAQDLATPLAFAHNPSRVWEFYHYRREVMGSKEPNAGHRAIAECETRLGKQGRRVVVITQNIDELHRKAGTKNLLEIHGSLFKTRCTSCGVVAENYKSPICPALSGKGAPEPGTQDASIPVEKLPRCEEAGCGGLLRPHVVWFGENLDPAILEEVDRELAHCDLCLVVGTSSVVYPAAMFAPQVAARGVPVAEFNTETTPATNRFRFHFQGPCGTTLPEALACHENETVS
Chain of Estrogen receptor beta (Q92731 whole entry): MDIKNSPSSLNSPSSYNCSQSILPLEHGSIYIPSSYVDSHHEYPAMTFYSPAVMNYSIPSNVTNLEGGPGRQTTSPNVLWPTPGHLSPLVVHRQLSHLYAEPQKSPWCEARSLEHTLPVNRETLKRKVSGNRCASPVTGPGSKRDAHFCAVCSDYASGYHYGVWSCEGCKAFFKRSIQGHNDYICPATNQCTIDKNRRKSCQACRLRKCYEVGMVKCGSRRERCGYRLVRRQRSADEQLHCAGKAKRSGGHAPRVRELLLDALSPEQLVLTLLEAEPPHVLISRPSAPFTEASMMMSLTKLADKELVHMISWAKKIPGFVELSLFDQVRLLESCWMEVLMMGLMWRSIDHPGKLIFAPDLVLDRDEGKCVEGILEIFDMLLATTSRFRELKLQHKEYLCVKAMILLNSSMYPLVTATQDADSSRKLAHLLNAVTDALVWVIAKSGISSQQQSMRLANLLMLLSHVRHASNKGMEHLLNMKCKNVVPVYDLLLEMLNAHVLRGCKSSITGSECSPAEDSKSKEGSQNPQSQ

For `CCOC(=O)C(C(C)=O)c1c(Br)c(O)c(O)c2c(C(=O)c3ccc(C)cc3)coc12` (stereo unspecified), the EC50 [1] was 18.8 µM (active), the EC50 [2] was 3.75 µM (active) and the EC50 [3] was 15.8 µM (active). The IC50 [4] was 3.43 µM (active), the EC50 [5] was 3.41 µM (active) and the IC50 (Nonstructural protein 1) was > 100 µM (active). For the same compound, the IC50 [6] was 4.26 µM (active) and the AC50 (INS1) was 3.56 µM (active).
With `O=S(=O)(c1ccc(NC2=NN=C(c3cc(F)ccc3F)CS2)cc1)N1CCOCC1` the AC50 [7] was > 30 µM (inactive).
In the case of `Cc1ccc(OCc2ccc(C(=O)O)o2)cc1C`, the IC50 [8] is reported as 1.75 µM (active).
In the case of `CS(=O)(=O)c1sc(C(=O)NC(=S)Nc2ccc(OC(F)(F)F)cc2)c2c1C=CCC2`, the EC50 [9] is reported as 1.01 µM (active).
With `COc1ccc(NC(=O)c2noc3c2CCC3)cc1` the IC50 (Bcl-2-like protein 10) was 12.6 µM (active) and the IC50 (Estrogen receptor beta) was < 0.023 µM (not active).
In the case of `COc1cc(SC)ccc1C(=O)Nc1ccc2c(c1)CCC2`, the IC50 [10] is reported as > 67.5 µM (inactive) and the EC50 [11] is reported as > 67.5 µM (inactive).
In the case of `Cc1ccc(C(=O)CN2C(=O)c3ccccc3S2(=O)=O)cc1`, the AC50 [12] is reported as 0.548 µM (active), the AC50 [13] is reported as 4.12 µM (active) and the EC50 (cells) is reported as 0.315 µM (active). The IC50 [14] was > 80 µM (inactive), the AC50 [15] was 3.11 µM (active) and the AC50 [16] was 1.81 µM (active). The AC50 [17] was 17.9 µM (active), the EC50 [18] was 0.263 µM (active) and the AC50 [19] was 0.594 µM (active). For the same compound, the EC50 [20] was 0.363 µM (active), the EC50 [21] was < 0.1 µM (active) and the IC50 [8] was 4.64 µM (active). For the same compound, the IC50 (Jurkat) was 1.57 µM (active).
In the case of `N=c1c2c3c(sc2ncn1CCN1CCOCC1)CCCC3`, the IC50 [22] is reported as > 100 µM (not active).
In the case of `Cc1cc(NC(=O)CSc2nc3c(c(=O)n2CCc2ccccc2)SC(C)C3)no1` (stereo unspecified), the IC50 (Estrogen receptor) is reported as 33.6 µM (not active).
With `CCn1c(COc2ccccc2)nnc1SCC(=O)NC1CCCCC1` the IC50 [22] was > 100 µM (not active).
